According to patent US20080299234A1, “Medication Comprising Plant Extracts as a Lipase Inhibitor” (priority 2005, published 2008):

Key:
triglyceride = conditions: Tsujita et al. 1996; Kagawa et al. 1996, 1998; cited from earlier work
[1] = test system: postprandial triglyceride values in the plasma of rats; test: lipid stress test in rats with Triton WR-1339 (postprandial rise in plasma triglyceride values); type: in vivo
Procedure: For further examination and verification of the results determined in vitro, the triglyceride-reducing effect was tested in an animal experiment.
To this end a lipid stress test was carried out in rats with Triton WR-1339 to inhibit the triglyceride elimination from the blood and the postprandial rise in plasma triglyceride values over four hours The following test substances were used:
Orlistat as positive control.
As result, the rise in postprandial triglyceride values in the plasma of rats after administration of the test substances was recorded. […] They include linseed, sunflower, marigold and propolis.

pancreatic lipase = target: T1, pancreatic lipase (Homo sapiens, UniProt P16233); conditions: application of Orlistat; cited from earlier work
T1 sequence (P16233 17-465): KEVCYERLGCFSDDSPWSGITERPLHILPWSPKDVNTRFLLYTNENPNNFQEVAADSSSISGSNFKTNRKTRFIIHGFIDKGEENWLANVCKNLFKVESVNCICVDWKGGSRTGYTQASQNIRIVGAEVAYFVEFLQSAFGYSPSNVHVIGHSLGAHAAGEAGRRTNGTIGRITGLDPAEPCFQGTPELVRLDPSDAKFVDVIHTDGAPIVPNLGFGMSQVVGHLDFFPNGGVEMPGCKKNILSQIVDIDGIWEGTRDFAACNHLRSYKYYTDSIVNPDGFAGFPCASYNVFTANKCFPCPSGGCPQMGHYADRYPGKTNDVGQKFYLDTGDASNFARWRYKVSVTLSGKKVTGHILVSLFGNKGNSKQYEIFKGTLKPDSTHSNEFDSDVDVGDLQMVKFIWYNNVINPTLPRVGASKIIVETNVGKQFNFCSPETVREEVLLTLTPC

Molecule | triglyceride-reducing (literature) (triglyceride) | triglyceride-reducing effect (in words) ([1]; rats, lipid stress test with Triton WR-1339, postprandial plasma triglyceride rise (FIG. 1)) | triglyceride values as a function of the time after food intake (in words) ([1]; rat plasma after lipid stress test, experimental period of four hours (FIG. 2)) | undesired side effects (pancreatic lipase)
VVYP (UniProt P02070 32-35, looked up, fragment) [fragment 32-35 of the β-chain of bovine haemoglobin] | triglyceride-reducing | – | – | –
protamine | triglyceride reducing | no triglyceride-reducing effect was found | – | –
CCCCCCCCCCC[C@@H](C[C@@H]1OC(=O)[C@H]1CCCCCC)OC(=O)[C@H](CC(C)C)NC=O [Orlistat, Tetrahydrolipstatin] | – | – | the lowest | oily or fatty stools
